Measurements published in US20200291391A1, “CROSS-LINKED EPITOPES AND METHODS OF USE THEREOF” (Indi Molecular, Inc., priority 2019, published 2020).
“Also recorded” adds a separate entry of the source. Where a SMILES comes first, the peptide text is derived from it. Bridges are numbered along the chain shown (N, C = ends). Triazole bridges read from a SMILES are 1,4-linked. Where no end group is shown, it is not given here. [ ]: non-standard residue; d: D form. Lys(N3) = [N-]=[N+]=NCCCC[C@H](N)C(=O)O; Pra = C#CC[C@H](N)C(=O)O

How the values were obtained:
epitope B2 = target: T1, epitope B2 (Homo sapiens, UniProt P01732, L47X); test: Epitope bound by ligand; format: binding
T1 construct: host or cells: synthetic peptide (per the listing)
Experimental: Epitope B2 ligand tfpkk (SEQ ID NO:21) and the three hit ligands selected against CD8 epitopes A2, B2, H, and J were tested for binding to CD8+ and CD8− cells by flow cytometry.

CD8+SupT1 cells = test: Flow cytometry binding to CD8+ cells; format: cell-based; details: for selective binding to CD8+ cells in flow cytometry: SupT1 (CD8+) vs Jurkat (CD8-) cells, FIG. 11; for binding to CD8+SupT1 cells by flow cytometry: with the 1kPEG linker
Experimental: (§1) Three hits were left after this screening (Table 3). These hits were assessed in solid phase ELISA and in flow cytometry experiments.
(§2) Binding of krsah (SEQ ID NO:27) was detected on both CD8+SupT1 cells and CD8−Jurkat cells. The mean fluorescence intensity ratio to each of the ligands tfpkk (SEQ ID NO:21), krsah (SEQ ID NO:27), and snprk (SEQ ID NO:28) was determined (Table 4). The mean fluorescence intensity ratio of different amounts of the ligand tfpkk (SEQ ID NO:21) was determined (Table 5).
(§3) Binding of Biotin-1kPEG-tfpkk (SEQ ID NO:21) to CD8+SupT1 cells or CD8−Jurkat was performed at room temperature (RT) or 4° C.
(§4) Concentration of biotin-1kPEG-tfpkk (SEQ ID NO:21) and -nfyrr (SEQ ID NO:32) was titrated on SupT1 and Jurkat cells. The biotin-1kPEG-ligands were incubated with CD8+SupT1 cells and CD8−Jurkat cells at a concentrations of […].

CD8−Jurkat cells = test: Flow cytometry binding to CD8- cells; format: cell-based; details: with the 1kPEG linker
Experimental: as §1, §2, §3, §4

[1] = target: T2, CD8 epitopes A, B, C, D, and E (Homo sapiens, UniProt P01732, M123X); test: Bead-coupled alkyne peptide screened with azide- and biotin-containing epitopes, alkaline phosphatase-streptavidin development; format: binding; details: D, and E tested
T2 construct: host or cells: synthetic peptide (per the listing)
Experimental: The epitope E ligand used in the biligand is tfpkk (SEQ ID NO:21). It was determined that tfpkk (SEQ ID NO:21) binds to epitope E by screening an alkyne-containing tfpkk peptide (SEQ ID NO:21) coupled to a bead (FIG. 8) with azide- and biotin-containing epitopes A, B, C, D, and E (FIG. 9). The epitopes used in the screen were: Epitope A (a.a. 1-10): Biotin-PEG3-[Az4]-SQFRVSPLDR (SEQ ID NO:22); Epitope B (a.a. 24-32): Biotin-PEG3-[Az4]-VLLSNPTSG (SEQ ID NO:23); Epitope C (a.a. 58-77): Biotin-PEG3-KAAEGLDTQ-[Az4]-FSGKRLGDTF (SEQ ID NO:24); Epitope D (a.a. 68-83): Biotin-PEG3-FSGKRL-[Az4]-DTFVLTLSD (SEQ ID NO:25); Epitope E (a.a. 95-110): Biotin-PEG3-SALSNSI-[Az4]-YFSHFVPV (SEQ ID NO:26).
This is in agreement with docking calculations of binding affinities of the epitopes to tfpkk (SEQ ID NO:21) and a control peptide (krsah; SEQ ID NO:27) (Table 2).

| Compound | epitope bound (epitope B2) | selective binding to CD8+ cells in flow cytometry (CD8+SupT1 cells) | binding to CD8+SupT1 cells by flow cytometry (CD8+SupT1 cells) | binding to CD8−Jurkat cells by flow cytometry (CD8−Jurkat cells) | color development of beads with alkaline phosphatase-linked streptavidin [1] |
| --- | --- | --- | --- | --- | --- |
| C[C@H](O)[C@H]1NC(=O)[C@@H](Cc2ccc(O)cc2)NC(=O)[C@@H](Cc2c[nH]cn2)NC(=O)[C@@H](CCCCN)NC(=O)[C@@H](N)Cc2cn(nn2)CCCC[C@@H](C(N)=O)NC(=O)[C@@H](CC(N)=O)NC1=O [khytn] (H-[Pra][dK][dH][dY][dT][dN][Lys(N3)]-NH2; triazole 1-7; N-terminus assumed) | bind to epitope B2 |  |  |  |  |
| herlk: CD8 ligand hit of four epitope cocktail screening ([dH][dE][dR][dL][dK]) |  | weakly selective binding to CD8+ cells |  |  |  |
| krsah: CD8 ligand hit; control peptide in docking ([dK][dR][dS][dA][dH]) |  |  | can be detected | detected; also recorded: also observed |  |
| nsprw: CD8 ligand hit of four epitope cocktail screening ([dN][dS][dP][dR][dW]) |  | weak (and weakly selective) binding to CD8+ cells |  |  |  |
| tfpkk: CD8 ligand peptide; epitope E ligand used in the biligand ([dT][dF][dP][dK][dK]) | bind to epitope B2 |  | observed | little binding | color only when epitope E was used |
